Literature values in patent US10665326B2, “Deep proteome markers of human biological aging and methods of determining a biological aging clock” (INSILICO MEDICINE, INC., priority 2017, dated 2020).

Assays:
[1] = test system: pre-senescent and senescent cells
[2] = test system: muscle cells

| Molecule | killing of pre-senescent and senescent cells [1] | mitogenic response [2] |
| --- | --- | --- |
| O=c1c(O)c(-c2ccc(O)c(O)c2)oc2cc(O)cc(O)c12 [quercetin] | able to kill pre-senescent and senescent cells | – |
| 740 Y-P | – | stimulates a mitogenic response |
| Tocotrienols | able to kill pre-senescent and senescent cells | – |
